Measurements published in patent publication US9801872B2, “Pyridinyl and fused pyridinyl triazolone derivatives” (Takeda Pharmaceutical Company Limited, priority 2013, dated 2017).

Molecular target: human BTK (Homo sapiens (Human), UniProt Q06187)
Assay: BTK inhibition: BTK-mediated phosphorylation of FAM-labeled substrate 5-FAM-[…]-NH2 (Caliper LC-3000)
Type: biochemical
Source text: The activity of compounds as BTK inhibitors may be determined by a variety of methods, including in vitro and in vivo methods.
This construct engineers an in-frame translational fusion with the Glutathione-S-Transferase (GST) protein for use in affinity purification. The fusion protein derived from this construct contains a protease recognition sequence to liberate the BTK from the GST affinity tag. High-titer baculoviral stocks, generated using the Bac-to-Bac® system (Invitrogen), are used to express the recombinant protein in Spodoptera frugiperda Sf9 cells in 10 L Wave bags. Recombinant proteins are isolated from cellular extracts by passage over Glutathione Sepharose 4B (GE Healthcare) and the BTK moiety is released from the GST affinity tag by treatment with PreScission protease. The BTK recombinant protein is further purified by size exclusion chromatography (HiLoad 16/60 Superdex 200, GE Healthcare) in a buffer containing 20 mM Hepes (pH 7.4), 50 mM NaCl, 10 mM MgCl2, 0.25 mM TCEP and 0.1 mM EDTA. The purity of the fractions is assessed by SDS PAGE and the peak protein fractions are pooled and concentrated using Amicon Ultra-15 Centrifugal Filter Devices (Millipore).
The inhibitory properties of compounds relative to BTK is determined using a black 384-well-plate format in a buffer which contains 50 mM Hepes, 10 mM NaCl, 10 mM MgCl2, 0.2 mM EDTA, 0.01% Brij35®, 1 mM DTT, and 0.1 mg/mL BSA at pH 7.3. The test compound is prepared in DMSO using 2-fold serial dilutions for 11 data points, which are added to the buffer so that each dilution contains 3% DMSO. […] The reaction mixtures are incubated at room temperature for 60 minutes and then quenched by adding 25 μL of 50 mM EDTA. To quantify the fluorescent-labeled substrate and product following reaction, the test plate is loaded on a Caliper LC-3000, which measures percent of conversion by microfluidic-based separation.
The compounds were tested in accordance with the assay described on page 42 of the specification.

Sequence of human BTK (Q06187 382-659): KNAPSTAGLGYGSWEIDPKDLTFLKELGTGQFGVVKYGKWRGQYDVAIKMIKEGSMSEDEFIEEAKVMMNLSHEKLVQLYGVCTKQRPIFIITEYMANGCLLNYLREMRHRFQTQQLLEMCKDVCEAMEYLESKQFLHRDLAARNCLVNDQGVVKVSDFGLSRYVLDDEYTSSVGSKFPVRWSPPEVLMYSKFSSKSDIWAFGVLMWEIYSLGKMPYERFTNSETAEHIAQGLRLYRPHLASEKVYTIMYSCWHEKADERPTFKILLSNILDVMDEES

Row | SMILES | IC50 (read-out: BTK Inhibition (pIC50) (converted)) [nM] | BTK Inhibition (pIC50) (residues 382 to 659 of human BTK, 60 minutes at room temperature, pIC50 = -log(IC50), IC50 molar)
1 | C=CC(=O)N1C[C@H](Oc2nc(-c3n[nH]c(=O)[nH]3)cc3ccccc23)[C@@H](C)C1 (racemic) [Example 19, 3-(1-(((3R,4S)-1-acryloyl-4-methylpyrrolidin-3-yl)oxy)isoquinolin-3-yl)-1H-1,2,4-triazol-5(4H)-one and 3-(1-(((3S,4R)-1-acryloyl-4-methylpyrrolidin-3-yl)oxy)isoquinolin-3-yl)-1H-1,2,4-triazol-5(4H)-one (mixture of enantiomers)] | < 6.31 | 
2 | C=CC(=O)N1CC[C@H](Oc2cc(C)cc(-c3n[nH]c(=O)[nH]3)n2)C1 [Example 30, (S)-3-(6-((1-acryloylpyrrolidin-3-yl)oxy)-4-methylpyridin-2-yl)-1H-1,2,4-triazol-5(4H)-one] |  | >8.6
